These are literature values, as cited in patent publication US10888535B2, “Skin disinfectant composition” (priority 2015, dated 2021).

Consider `CCCCCCCCN=C(N)NC(N)=NCc1ccc(Cl)c(Cl)c1.O=C(O)[C@H](O)[C@@H](O)[C@H](O)[C@H](O)CO` [gluconate of olanexidine], for which the solubility in water entry is given as “sufficient solubility in water”.
With `CCCCCCCCNC(=N)NC(=N)NCc1ccc(Cl)c(Cl)c1` [Olanexidine, 1-(3,4-dichlorobenzyl)-5-octylbiguanide], the solubility in water result was “extremely insoluble in water”.
